Measurements as given in patent publication US20010055590A1, “Method for enhancing myoblast migration and invasion in the context of gene therapy” (priority 1999, published 2001).

Assays:
[1] = test system: human myoblasts; assay: In vitro human myoblast migration assay; format: cell-based; conditions: for effect on stimulated human myoblast migration: plasmin or NAC, FIG. 7c, migration induced by PDGF-BB; for stimulation of human myoblast migration over the BSA control level: 12 hour time point
Experimental: Mouse myoblasts were previously isolated from hind limb muscles of 4-6 week old severe combined immunodeficient (SCID) mice and clonally purified from contaminating fibroblasts (Yao et al. “Primary myoblast-mediated gene: transfer: persistent expression of human factor IX in mice” Gene Therapy 1:99-107, 1994). Myoblasts (approximately 1×10^6 cells) were plated on 6 cm tissue culture plates coated with 0.5% gelatin (Sigma, St. Louis, Mo.) and grown in growth medium consisting of Dulbecco's Modified Eagle Medium (DMEM) (Gibco BRL, Gaithersburg Md.) supplemented with 20% fetal bovine serum (FBS; Gibco) and 0.5% chick embryo extract (CEE; Gibco). All animal studies were carried out following the institutional guidelines for ethical animal use. Human myoblasts were isolated using trypsin digestion from abdominal wall or chest wall muscle biopsies, and surgery. Written consent was obtained from all patients prior to biopsy isolation as approved by the University Hospital's Institutional Regulation Board on the use of human subjects. Cells were preplated on uncoated plates for 1 hour to separate muscle fibroblasts. Approximately 95% of the cells were desmin-positive following immunohistochemical staining of representative culture samples, and were capable of differentiation into myotubes, indicating high purity of the myoblast preparation. All experiments were done with myoblasts of passage 7 or lower. Myoblast migration and invasion were examined using a commercially available in vitro cell migration and invasion assay kit (Biocoat, Becton Dickinson, Franklin Lakes, N.J.) as described by Albini et al. (A rapid in vitro assay for quantitating the invasive potential of tumor cells Cancer Res 47:3239-3245, 1987). Myoblasts were grown to approximately 70% confluence, rinsed three times in serum-free DMEM, followed by incubation for 3 hours in 0.2% bovine serum albumin (BSA) in DMEM to eliminate the effects of serum. Cells were then trypsinized and collected by centrifugation. Cells were resuspended in serum-free DMEM at a density of 1×10^5 cells/ml, and 0.5 ml aliquots of cell suspension were added to the top chamber. […] Fibronectin subfragments of 45 KDa (Sigma), 120 kDa (Gibco), 63 kDa (Retronectin, Takara) and 70 KDa (Sigma) were used alone or in combination. The growth factor concentrations used were those which could produce maximal effects as examined in the present studies by extending from values reported by Bischoff (“Chemotaxis of skeletal muscle satellite cells” Devel. Dynamics 208:505-515, 1997). For migration studies, the upper chamber membrane was coated with 0.1% gelatin and cells were allowed to migrate for 8-12 hours, while for invasion studies, the upper membrane was coated with 5 μl of Matrigel® diluted to 5 mg/ml in sterile phosphate buffered saline (PBS) and cells were allowed to invade for 24 hours. The top side of the insert membrane was scrubbed free of cells using a cotton swab and the bottom side was stained using the Leukostat-I system (Fisher Diagnostics, Pittsburgh, Pa.). The number of cells per field was counted in 10 randomly selected fields and averaged for each condition. To evaluate the effects of inactivation or activation of MMPs, aliquots (0.05 units in 50 μl PBS) of purified human plasmin (Sigma) or 50 mM N-acetyl cysteine (NAC; Sigma) were added with the cells to the top chamber of the migration assay and growth factor was added to the bottom. […] The effects of growth factors on human myoblast migration in vitro (12 hour time point) were somewhat different from those observed with mouse myoblasts. […] The greatly elevated level of migration of human myoblasts was due in part to the extremely low migration in the BSA control (basal level) of human cells compared to mouse cells. The largest effects on human myoblast migration were produced by fibronectin (100-fold), PDGF (about 62-fold), TGF-β (about 54-fold) and HGF (46-fold) over the control level, while bFGF produced only a 37-fold stimulation (FIG. 7a). […]

[2] = test system: MMP-2; assay: Gelatin zymography of mouse myoblast culture medium, MMP-2; format: cell-based
Experimental: Briefly, myoblasts were grown in 6 cm tissue culture plates to approximately 70% confluence, then rinsed three times with serumfree DMEM and incubated for 3 hours in DMEM containing 0.2% BSA to eliminate the effects of serum. Growth factors were added and cells were incubated for 24 hours. Culture medium was then collected, centrifuged to pellet detached cells, and concentrated ten-to twenty-fold using the Centricon-10 (Amicon, Beverly, Mass.) system. The protein concentration of the supernatants was determined using the Bio-Rad protein microassay system with BSA used as the standard. Samples were stored at −70° C. until use. For gelatin zymography, aliquots (10 μg as the total protein per sample) were electrophoresed at constant voltage on a 10% polyacrylamide gel containing 2 mg/ml gelatin. The gel was rinsed three times for 15 min in 2.5% Triton-X 100 to remove SDS and renature the proteins, then incubated in MMP activation buffer (0.05 M Tris-HCl, pH 7.5 with 5 mM CaCl2) for 24 hours at 37° C. with constant shaking. Gels were stained overnight in 0.5% Coomassie blue R-250, and destained for 1 hour in 40% methanol: 10% acetic acid. Proteinase activity was quantified by densitometric scanning of bands using a Bio-Rad Gel Doc 1000 video camera imaging system (Bio Rad, Hercules, Calif.). […] Values are arbitrary densitometric units, which are normalized to DMEM control for each experiment and shown as values ±SEM representing a minimum of 3 experiments per condition. […] Mouse myoblasts were treated for 24 hours with either DMEM alone, fibronectin (50 μg/ml), or individual fragments (37.5 μg/ml) of 45, 120, 63 (Retronectin), 75 kDa and their combinations, 45 kDa/120 kDa and 120 kDa/63 kDa.

[3] = test system: MMP-9; assay: Gelatin zymography of mouse myoblast culture medium, MMP-9; format: cell-based
Experimental: Briefly, myoblasts were grown in 6 cm tissue culture plates to approximately 70% confluence, then rinsed three times with serumfree DMEM and incubated for 3 hours in DMEM containing 0.2% BSA to eliminate the effects of serum. Growth factors were added and cells were incubated for 24 hours. Culture medium was then collected, centrifuged to pellet detached cells, and concentrated ten-to twenty-fold using the Centricon-10 (Amicon, Beverly, Mass.) system. The protein concentration of the supernatants was determined using the Bio-Rad protein microassay system with BSA used as the standard. Samples were stored at −70° C. until use. For gelatin zymography, aliquots (10 μg as the total protein per sample) were electrophoresed at constant voltage on a 10% polyacrylamide gel containing 2 mg/ml gelatin. The gel was rinsed three times for 15 min in 2.5% Triton-X 100 to remove SDS and renature the proteins, then incubated in MMP activation buffer (0.05 M Tris-HCl, pH 7.5 with 5 mM CaCl2) for 24 hours at 37° C. with constant shaking. Gels were stained overnight in 0.5% Coomassie blue R-250, and destained for 1 hour in 40% methanol: 10% acetic acid. Proteinase activity was quantified by densitometric scanning of bands using a Bio-Rad Gel Doc 1000 video camera imaging system (Bio Rad, Hercules, Calif.). […]

[4] = test system: MMP-9; assay: Gelatin zymography of human myoblasts, MMP-9; format: cell-based
Experimental: Briefly, myoblasts were grown in 6 cm tissue culture plates to approximately 70% confluence, then rinsed three times with serumfree DMEM and incubated for 3 hours in DMEM containing 0.2% BSA to eliminate the effects of serum. Growth factors were added and cells were incubated for 24 hours. Culture medium was then collected, centrifuged to pellet detached cells, and concentrated ten-to twenty-fold using the Centricon-10 (Amicon, Beverly, Mass.) system. The protein concentration of the supernatants was determined using the Bio-Rad protein microassay system with BSA used as the standard. Samples were stored at −70° C. until use. For gelatin zymography, aliquots (10 μg as the total protein per sample) were electrophoresed at constant voltage on a 10% polyacrylamide gel containing 2 mg/ml gelatin. The gel was rinsed three times for 15 min in 2.5% Triton-X 100 to remove SDS and renature the proteins, then incubated in MMP activation buffer (0.05 M Tris-HCl, pH 7.5 with 5 mM CaCl2) for 24 hours at 37° C. with constant shaking. Gels were stained overnight in 0.5% Coomassie blue R-250, and destained for 1 hour in 40% methanol: 10% acetic acid. Proteinase activity was quantified by densitometric scanning of bands using a Bio-Rad Gel Doc 1000 video camera imaging system (Bio Rad, Hercules, Calif.).

[5] = test system: SCID mouse vastus musculature; assay: Myoblast implantation in vivo: incorporation of β-GAL-marked myoblasts into host myofibers; conditions: myoblasts stimulated before implantation with 1 μg/ml bFGF, 50 μg/ml fibronectin or both; SCID mice, 3 weeks; 4 animals
Experimental: All animal studies were carried out following the institutional guideline for animal use. For in vivo studies, SCID mouse myoblasts transduced with a BAG retrovirus containing the beta-galactosidase (β-GAL) reporter gene and selected as previously described (Yao and Kurachi “Implanted myoblasts not only fuse with myofibers but also survive as muscle precursor cells” J. Cell Sci 105:957-963, 1993), were grown in growth medium on 15 cm plates. When cells reached 70% confluence they were harvested by trypsinization using standard methods, rinsed twice in phosphate buffered saline (PBS), and resuspended in DMEM containing either bFGF (1 μg/ml), fibronectin (50 μg/ml) or both, at a concentration of 2×10^7 cells/ml. […]
Muscle sections were stained for β-GAL activity using the standard histochemical staining procedure (Rando et al. “The fate of myoblasts following transplant into mature muscle” Exper. Cell Res. 220:383-389, 1995). […] The total number of β-GAL-positive fibers (stained blue) per section was counted for 5 different sections spanning the entire injection site for each animal and averaged. […]
The number of β-GAL positive myofibers were quantified after implantation of BAG-transduced SCID myoblasts treated with DMEM alone (control), 1 μg/ml bFGF, 50 μg/ml fibronectin, or 1 μg/ml bFGF+50 μg/ml fibronectin. […]

[6] = mouse myoblasts treated 24 hours

Molecule	effect on stimulated human myoblast migration [1]	stimulation of human myoblast migration over the BSA control level [1] [fold]	increase in the number of β-GAL-positive myofibers over control [5] [fold]	other results
CC(=O)N[C@@H](CS)C(=O)O [NAC, N-acetyl cysteine, reference compound]	greatly reduced	–	–	–
bovine basic fibroblast growth factor [bFGF]	–	37	2.3	increase of total MMP-2 expression ([2]; mouse myoblasts treated 24 hours, densitometry normalized to DMEM control): 49%; MMP-9 expression (110 kDa band) over the DMEM control level [3, 6]: ~10 fold; effect on MMP-9 expression (92 kDa band) [4]: only marginal increases in MMP-9 expression
human serum fibronectin	–	100	2	MMP-2 proteolytic activation (64 and 62 kDa forms) [2, 6]: substantial proteolytic conversion to the activated and intermediate forms; increased MMP-2 expression ([2]; mouse myoblasts, soluble fibronectin 24 hours): approximately 2 fold; effect on MMP-9 expression ([3]; mouse myoblasts): does not significantly affect
purified human plasmin (protein, UniProt P00747 20-580; P00747 581-810, looked up, Plasmin) Plasmin heavy chain A: EPLDDYVNTQGASLFSVTKKQLGAGSIEECAAKCEEDEEFTCRAFQYHSKEQQCVIMAENRKSSIIIRMRDVVLFEKKVYLSECKTGNGKNYRGTMSKTKNGITCQKWSSTSPHRPRFSPATHPSEGLEENYCRNPDNDPQGPWCYTTDPEKRYDYCDILECEEECMHCSGENYDGKISKTMSGLECQAWDSQSPHAHGYIPSKFPNKNLKKNYCRNPDRELRPWCFTTDPNKRWELCDIPRCTTPPPSSGPTYQCLKGTGENYRGNVAVTVSGHTCQHWSAQTPHTHNRTPENFPCKNLDENYCRNPDGKRAPWCHTTNSQVRWEYCKIPSCDSSPVSTEQLAPTAPPELTPVVQDCYHGDGQSYRGTSSTTTTGKKCQSWSSMTPHRHQKTPENYPNAGLTMNYCRNPDADKGPWCFTTDPSVRWEYCNLKKCSGTEASVVAPPPVVLLPDVETPSEEDCMFGNGKGYRGKRATTVTGTPCQDWAAQEPHRHSIFTPETNPRAGLEKNYCRNPDGDVGGPWCYTTNPRKLYDYCDVPQCAAPSFDCGKPQVEPKKCPGR Plasmin light chain B: VVGGCVAHPHSWPWQVSLRTRFGMHFCGGTLISPEWVLTAAHCLEKSPRPSSYKVILGAHQEVNLEPHVQEIEVSRLFLEPTRKDIALLKLSSPAVITDKVIPACLPSPNYVVADRTECFITGWGETQGTFGAGLLKEAQLPVIENKVCNRYEFLNGRVQSTELCAGHLAGGTDSCQGDSGGPLVCFEKDKYILQGVTSWGLGCARPNKPGVYVRVSRFVTWIEGVMRNN	significantly increased	–	–	–
